In patent US11414384B2, “P300/CBP hat inhibitors” (Constellation Pharmaceuticals, Inc., priority 2018, dated 2022) one finds IC50 and EC50 data, which are given here for 31 compounds.

Assay [1] deals with p300 HAT domain (residues 1287-1666) (Homo sapiens (Human), UniProt Q09472). Put plainly: p300 HAT SPA assay (scintillation proximity assay, acetylation of biotinylated H3(1-21) peptide). In kind it is biochemical. The note with it: p300 HAT domain; average of at least 2 replicate titrations; read-out: P300 HAT SPA IC50. The essentials: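 Purified p300 HAT domain reaction transferred to streptavidin plates to capture biotinylated H3(1-21) peptide, incubated 1.5 hr at RT, and read by scintillation proximity. IC50 values derived from concentration-response data.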

The test system of assay [2] is acetylation of chromatin at H3K18 (catalyzed by p300 and CBP) in HCT-116 cells. Put plainly: H3K18Ac MSD cellular assay. Type of assay: cell-based. The note with it: 2 hr treatment, average of at least 2 replicate titrations. Here is the method:
Select compounds were also evaluated in a H3K18Ac MSD cellular assay that measures the ability of compounds to inhibit the acetylation of chromatin at H3K18, a process catalyzed by p300 and CBP. In a typical experiment the p300 HAT inhibitory activity inside cells of the compounds described herein was determined in accordance with the following experimental method. 20 k HCT-116 cells per well are plated in 75 μL RPMI+10% FBS media the night before treatment. Compounds plated in DMSO at 4× final concentration are resuspended in 30 μL RPMI+10% FBS, then 25 μL is combined with corresponding wells containing cells. Treated cells are incubated for 2 hr at 37° C., then lysed in 500 μL final volume and frozen at −80° C. MSD plates (Meso Scale Discovery) are coated overnight at 4° C. with 60 μL 1:500α-total histone antibody (Millipore MAB3422) in PBS. Plates are then blocked with 5% BSA in TBST shaking at RT for 1 hr, washed, and 30 μL lysate added to each well for 2 hr shaking at RT. Plates are washed and 25 μL 1:216α-H3K18ac antibody (CST 9675) in PBS added, then incubated for 1 hr shaking at RT. Plates are washed again, then 25 μL 1:1000 Sulfo-Tag goat a-rabbit antibody (Meso Scale Discovery R32Ab-1) in PBS is added for 1 hr shaking at RT. Plates are washed once more, then 150 μL 1× Read Buffer (MSD #R92TD-3) is added to all wells and read on MSD SECTOR Imager 2400 using the conventional read setup.

Sequence of p300 HAT domain (residues 1287-1666) (Q09472 1287-1666): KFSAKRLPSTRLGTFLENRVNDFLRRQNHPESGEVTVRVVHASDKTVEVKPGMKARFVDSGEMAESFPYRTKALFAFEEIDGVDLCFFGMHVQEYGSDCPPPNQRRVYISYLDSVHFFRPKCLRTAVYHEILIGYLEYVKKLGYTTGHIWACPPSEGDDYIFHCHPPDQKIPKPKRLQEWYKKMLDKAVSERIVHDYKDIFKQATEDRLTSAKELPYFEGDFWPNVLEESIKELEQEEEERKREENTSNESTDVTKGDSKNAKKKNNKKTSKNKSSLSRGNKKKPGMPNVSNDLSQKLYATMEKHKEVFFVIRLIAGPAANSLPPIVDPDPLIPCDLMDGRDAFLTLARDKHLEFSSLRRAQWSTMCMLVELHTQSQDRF

`CCN1CC(NC(=O)c2ccc3c(C(=O)C(NCCc4ccc(C#N)cc4)c4ccccc4)c[nH]c3c2)C1` (single isomer, unassigned) [163 Isomer 2]: the concentration for half-maximal inhibition (IC50) in assay [1] amounted to 41.9 nM. The compound further returned an EC50 in assay [2] (Homo sapiens, HCT-116, 2 h) greater than 1000 nM.
In the case of `O=C(c1c[nH]c2cc(-c3ccncc3)ccc12)C(NCCc1ccc(F)cc1)c1ccccc1` (single isomer, unassigned) [82 Isomer 1], in assay [1], the IC50 is greater than 30000 nM. The concentration for a half-maximal effect (EC50) in assay [2] amounted to 1610 nM.
Turning to `N#Cc1ccc(CCNC(C(=O)c2cnn3cc(-c4cn[nH]c4)ccc23)c2ccccc2)cc1` (single isomer, unassigned) [99 Isomer 2], the half-inhibitory concentration (IC50) in assay [1] is 15.6 nM. In assay [2] (Homo sapiens, HCT-116, 2 h), this compound returned a 50% effective concentration (EC50) of 21.6 nM.
In the same order, the values of `N#Cc1ccc(CCNC(C(=O)c2c[nH]c3cc(-c4cn[nH]c4)ccc23)c2ccccc2)cc1` (single isomer, unassigned) [98 Isomer 2] are 58.3 nM and 18.6 nM.
In the same order, the values of `CNC(=O)c1ccc(CCN[C@H](C(=O)c2c[nH]c3cc(-c4cnn(C)c4)ccc23)c2ccccc2)cc1` (single isomer, unassigned) [131 Isomer 2] are 1290 nM and 101 nM.
Regarding `CC(CNC(C(=O)c1c[nH]c2ccccc12)c1ccccc1)c1ccc(Cl)cc1` (single isomer, unassigned) [26 Isomer 3], the 50% inhibitory concentration (IC50) in assay [1] is 3790 nM. Moreover, in assay [2], it took 6110 nM to reach a half-maximal effect (EC50).
Regarding `NC(=O)c1ccc(CCNC(C(=O)c2c[nH]c3cc(-n4ccnc4)ccc23)c2ccccc2)cc1` (single isomer, unassigned) [181 Isomer 1], the IC50 in assay [1] was 642 nM. Further, the midpoint of the response in assay [2] (Homo sapiens, HCT-116, 2 h), the EC50, lay at 243 nM.
In the case of `CCC(CNC(C(=O)c1c[nH]c2ccccc12)c1ccccc1)c1ccc(Cl)cc1` (single isomer, unassigned) [59 Isomer 4], in assay [1], the IC50 was 827 nM. The midpoint of the response in assay [2] (Homo sapiens, HCT-116, 2 h), the EC50, lay at 829 nM.
For `Cc1cnc(-c2ccc3c(C(=O)C(NCCc4ccc(Cl)cc4)c4ccccc4)c[nH]c3c2)[nH]1` (single isomer, unassigned) [109 Isomer 2], the IC50 in assay [1] came out at 195 nM. In assay [2] (Homo sapiens, HCT-116, 2 h), the EC50 came to 267 nM.
In the same order, the values of `Cn1cc(-c2ccc3c(C(=O)C(NCCc4ccc(C(=O)O)cc4Cl)c4ccccc4)c[nH]c3c2)cn1` (single isomer, unassigned) [142 Isomer 2] are 81.6 nM and 1200 nM.
In the same order, the values of `COc1cccc2c(C(=O)[C@@H](NCCc3ccc(S(N)(=O)=O)cc3)c3ccccc3)c[nH]c12` (single isomer, unassigned) [144 Isomer 2] are 1410 nM and 1380 nM.
As to `Cn1cc(-c2ccc3c(C(=O)C(NCCc4ccc(S(N)(=O)=O)cc4)c4ccccc4)c[nH]c3c2)nn1` (single isomer, unassigned) [116 Isomer 2], the IC50 in assay [1] turned out to be 413 nM. It took 148 nM to reach a half-maximal effect in assay [2] (Homo sapiens, HCT-116, 2 h) (EC50).
The matching figures for `CC(C)(O)CNC(=O)c1ccc2c(C(=O)C(NCCc3ccc(C#N)cc3)c3ccccc3)c[nH]c2c1` (single isomer, unassigned) [161 Isomer 2]: 95.1 nM and 78.1 nM.
The matching figures for `CC(Cc1ccc(Cl)cc1)NC(C(=O)c1c[nH]c2ccccc12)c1ccccc1` (single isomer, unassigned) [27 Isomer 1]: 636 nM and 681 nM.
For the compound `N#Cc1ccc(CCNC(C(=O)c2c[nH]c3cc(C(=O)NC4COC4)ccc23)c2ccccc2)cc1` (single isomer, unassigned) [174 Isomer 2], the half-maximal inhibitory concentration (IC50) in assay [1] is 39 nM. In assay [2], this compound yielded an EC50 of 98.3 nM.
In the case of `Cc1ncc(-c2ccc3c(C(=O)C(NCCc4ccc(Cl)cc4)c4ccccc4)c[nH]c3c2)[nH]1` (single isomer, unassigned) [110 Isomer 2], in assay [1], the IC50 was 258 nM. In assay [2] (Homo sapiens, HCT-116, 2 h), this compound showed an EC50 of 308 nM.
As to `CC(Cc1ccc(Cl)cc1Cl)NC(C(=O)c1c[nH]c2cc(-c3cnn(C)c3)ccc12)c1ccccc1` (single isomer, unassigned) [97 Isomer 4], the concentration for half-maximal inhibition (IC50) in assay [1] was found to be 6710 nM. In assay [2], the 50% effective concentration (EC50) is greater than 10000 nM.
Consider `CS(=O)(=O)CCCNC(=O)c1ccc2c(C(=O)C(NCCc3ccc(C#N)cc3)c3ccccc3)c[nH]c2c1` (single isomer, unassigned) [175 Isomer 2], for which the IC50 in assay [1] stood at 44 nM. Moreover, in assay [2] (Homo sapiens, HCT-116, 2 h), the concentration for a half-maximal effect (EC50) amounted to 184 nM.
Consider `O=C(c1c[nH]c2cc(-c3ccccn3)ccc12)C(NCCc1ccc(Cl)cc1)c1ccccc1` (single isomer, unassigned) [108 Isomer 1], for which the half-inhibitory concentration (IC50) in assay [1] was 1600 nM. Moreover, the 50% effective concentration (EC50) in assay [2] (Homo sapiens, HCT-116, 2 h) amounted to 928 nM.
As to `CNC(=O)c1ccc2c(C(=O)C(NCCc3ccc(Cl)cc3Cl)c3ccccc3)c[nH]c2c1` (single isomer, unassigned) [151 Isomer 2], in assay [1], the IC50 worked out at 101 nM. This compound also returned a half-maximal effective concentration (EC50) in assay [2] (Homo sapiens, HCT-116, 2 h) of 53.5 nM.
Consider `N#Cc1ccc(CCNC(C(=O)c2c[nH]c3cc(-n4ccnc4)ccc23)c2ccccc2)cc1` (single isomer, unassigned) [120 Isomer 1], for which, in assay [1], the IC50 came out at 987 nM. The same compound returned an EC50 in assay [2] of 193 nM.
As for `CC(CNC(C(=O)c1c[nH]c2ccccc12)c1ccccc1)c1ccc(Cl)cc1` (single isomer, unassigned) [26 Isomer 2], the IC50 in assay [1] was 4560 nM. Besides, in assay [2], the midpoint of the response, the EC50, lay at 2530 nM.
Turning to `Cc1ccc(CCNC(C(=O)c2c[nH]c3ccccc23)c2ccccc2)cc1` (single isomer, unassigned) [38 Isomer 2], the 50% inhibitory concentration (IC50) in assay [1] was 698 nM. Moreover, the 50% effective concentration (EC50) in assay [2] (Homo sapiens, HCT-116, 2 h) was found to be 1690 nM.
For `CC(Cc1ccc(Cl)cc1)NC(C(=O)c1c[nH]c2cc(-c3cnn(C)c3)ccc12)c1ccccc1` (single isomer, unassigned) [92 Isomer 3], in assay [1], the IC50 is 164 nM. The compound further came in with an EC50 in assay [2] (Homo sapiens, HCT-116, 2 h) of 109 nM.
In the same order, the values of `N#Cc1ccc(CCNC(C(=O)c2c[nH]c3cc(-c4cnn(CCO)c4)ccc23)c2ccccc2)cc1` (single isomer, unassigned) [95 Isomer 2] are 46 nM and 61.2 nM.
`Cc1ccc(-c2ccc3c(C(=O)C(NCCc4ccc(Cl)cc4)c4ccccc4)c[nH]c3c2)cn1` (single isomer, unassigned) [88 Isomer 2]: in assay [1], the IC50 was 603 nM. The compound further came in with a concentration for a half-maximal effect (EC50) in assay [2] (Homo sapiens, HCT-116, 2 h) of 379 nM.
In the same order, the values of `CN1CCN(c2ccc3c(C(=O)C(NCCc4ccc(C#N)cc4)c4ccccc4)c[nH]c3n2)CC1` (single isomer, unassigned) [121 Isomer 2] are 82 nM and 122 nM.
The matching figures for `Cn1cc(-c2ccc3c(C(=O)C(NCCc4ccc(Cl)cc4)c4ccccc4)c[nH]c3c2)cn1` (single isomer, unassigned) [83 Isomer 2]: 247 nM and 74.7 nM.
The matching figures for `Cn1cc(-c2ccc3c(C(=O)C(NCCc4ccc(C(N)=O)cc4)c4ccccc4)c[nH]c3c2)nn1` (single isomer, unassigned) [180 Isomer 2]: 370 nM and 219 nM.
As to `Cn1cc(-c2ccc3c(C(=O)C(NCCc4ccc(C#N)cc4)c4ccccc4)c[nH]c3c2F)cn1` (single isomer, unassigned) [103 Isomer 2], the half-inhibitory concentration (IC50) in assay [1] came out at 118 nM. In assay [2] (Homo sapiens, HCT-116, 2 h), this compound returned an EC50 of 68.5 nM.
In the same order, the values of `NS(=O)(=O)c1ccc(CCNC(C(=O)c2c[nH]c3cc(-n4ccnc4)ccc23)c2ccccc2)cc1` (single isomer, unassigned) [119 Isomer 2] are 580 nM and 232 nM.
